Among the data in ChEMBL document CHEMBL1133482, “1-Phenyl-5-pyrazolyl ureas: potent and selective p38 kinase inhibitors” (Bioorg Med Chem Lett, 2000) are solubility values, retold here.

≈ marks a conversion by molar mass, not a printed value.

A word on the solubility: it is the concentration that dissolves in the medium under given conditions.

This data set in a line: Aqueous solubility at pH 7.5. Type of data set: physicochemical.
`CC(C)(C)c1cc(NC(=O)Nc2cccc(Cl)c2Cl)n(-c2cccc([N+](=O)[O-])c2)n1` had a solubility of 18 µg/mL (≈ 40.2 µM).
As for `CC(C)(C)c1cc(NC(=O)Nc2cccc(Cl)c2Cl)n(-c2ccccc2)n1`, the figure is 24 µg/mL (≈ 59.5 µM); as for `CC(C)(C)c1cc(NC(=O)Nc2cccc(Cl)c2Cl)n(-c2ccc([N+](=O)[O-])cc2)n1`, 66 µg/mL (≈ 147 µM).
Consider `COc1cccc(-n2nc(C(C)(C)C)cc2NC(=O)Nc2cccc(Cl)c2Cl)c1`, for which the concentration in solution (solubility) was 46 µg/mL (≈ 106 µM).
As for `CC(C)(C)c1cc(NC(=O)Nc2cccc(Cl)c2Cl)n(-c2ccc(S(C)(=O)=O)cc2)n1`, the figure is 79 µg/mL (≈ 164 µM); as for `CC(C)(C)c1cc(NC(=O)Nc2cccc(Cl)c2Cl)n(-c2cccc(N)c2)n1`, 594 µg/mL (≈ 1420 µM); as for `CC(C)(C)c1cc(NC(=O)Nc2cccc(Cl)c2Cl)n(-c2cccc(F)c2)n1`, 17 µg/mL (≈ 40.4 µM).
